In patent US12268694B2, “Combination pharmaceutical agents as RSV inhibitors” (Enanta Pharmaceuticals, Inc., priority 2017, dated 2025):
pEC50: −log10 of the molar value.

Key:
[1] = tested on: genotype A, "Long" strain RSV; assay: RSV-A assay: CPE protection in HEp-2 cells, ATPlite readout; assay type: cell-based, human respiratory syncytial virus; conditions: human respiratory syncytial virus, HEp-2, read-out: Human RSV-A (“Long” strain) EC50
In short: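 HEp-2 cells (8,000/well) with 2-fold compound dilutions in duplicate, infected with Long-strain RSV at MOI 0.1 and incubated 5 days. Cell ATP measured by ATPlite luminescence to give EC50; uninfected parallel plate gives CC50.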

HEp-2 cells = assay: Cytotoxicity in parallel to the RSV-A assay (no virus), ATPlite readout; assay type: cell-based, human
Method: Following extensive parameter testing, the final assay is run as follows: HEp-2 cells are seeded into the inner 60 wells of a 96-well plate at 8,000 cells per well in a volume of 50 μL using Growth Media (DMEM without phenol red, 1% L-Glut, 1% Penn/Strep, 1% nonessential amino acids, 10% heat-inactivated FBS). 2-fold serial dilutions of control and test compounds are added to the wells in duplicate in a total volume of 25 μL. Viral stock is then added to the wells at a multiplicity of infection (MOI) of 0.1 in a volume of 25 μL, bringing the total volume of each well to 100 μL. The MOI is calculated using the PFU/mL, or TCID50 if unavailable. Each 96-well plate has a control column of 6 wells with cells and virus but no compound (negative control, max CPE), a column with cells but no compound or virus (positive control, minimum CPE), and a column with no cells or virus or compound (background plate/reagent control). The control wells with cells but no virus are given an additional 25 μL of growth media containing an equal quantity of sucrose as those wells receiving the viral stock in order to keep consistent in media and volume conditions. The outer wells of the plate are filled with 125 μL of moat media (DMEM, 1% Penn/Strep) to act as a thermal and evaporative moat around the test wells. Following a 5-day incubation period, the plates are read using ATPlite (50 μL added per well), which quantifies the amount of ATP (a measure of cell health) present in each well. Assay plates are read using the Envision luminometer. In parallel, cytotoxicity is examined on an additional 96-well plate treated in an identical manner, but substituting the 25 μL of viral stock for 25 μL of growth media. […] EC50 ranges are as follows: A <0.4 μM; B 0.4-0.8 μM; C >0.8 μM and CC50 ranges are as follows: A >50 μM; B 10-50 μM; C <10 μM.

Compound | pEC50 [1] | CC50 (HEp-2 cells) [nM]
O=C1Nc2ccccc2C(c2ccccc2)=NC1Nc1nnc(-c2ccc(C(F)(F)F)cn2)o1 (stereo not drawn) [Example 25] | < 6.10 | > 50000
Cc1cccc(-c2nnc(NC3N=C(c4ccccc4)c4ccccc4NC3=O)o2)n1 (stereo not drawn) [Example 26] | < 6.10 | > 50000
CS(=O)(=O)c1ccc(-c2nnc(NC3N=C(c4ccccc4)c4ccccc4NC3=O)o2)cc1 (stereo not drawn) [Example 27] | < 6.10 | > 50000
O=C1Nc2ccccc2C(c2ccccc2)=NC1Nc1nnc(-c2ccc(C(F)(F)F)cc2)o1 (stereo not drawn) [Example 28] | < 6.10 | > 50000
O=C1Nc2ccccc2C(c2ccccc2)=NC1Nc1nnc(-c2cccc(C(F)(F)F)c2)o1 (stereo not drawn) [Example 29] | < 6.10 | > 50000
O=C1Nc2ccccc2C(c2ccccc2)=NC1Nc1nnc(-c2ccc(OC(F)(F)F)cc2)o1 (stereo not drawn) [Example 30] | < 6.10 | > 50000
NS(=O)(=O)c1ccc(-c2nnc(NC3N=C(c4ccccc4)c4ccccc4NC3=O)o2)cc1 (stereo not drawn) [Example 31] | 6.10 to 6.40 | > 50000
N#Cc1cc(-c2nnc(NC3N=C(c4ccccc4)c4ccccc4NC3=O)o2)ccc1F (stereo not drawn) [Example 32] | 6.10 to 6.40 | > 50000
N#Cc1ccc(-c2nnc(NC3N=C(c4ccccc4)c4ccccc4NC3=O)o2)cc1F (stereo not drawn) [Example 33] | < 6.10 | > 50000
Cc1cc(-c2nnc(NC3N=C(c4ccccc4)c4ccccc4NC3=O)o2)ccc1C#N (stereo not drawn) [Example 34] | 6.10 to 6.40 | > 50000
N#Cc1cccc(-c2nnc(NC3N=C(c4ccccc4)c4ccccc4NC3=O)o2)c1 (stereo not drawn) [Example 35] | < 6.10 | > 50000
O=C1Nc2ccccc2C(c2ccccc2)=NC1Nc1nnc(-c2ccc(-n3cccn3)cc2)o1 (stereo not drawn) [Example 36] | 6.10 to 6.40 | 10000 to 50000
O=C1Nc2ccccc2C(c2ccccc2)=NC1Nc1nnc(-c2cccnc2)o1 (stereo not drawn) [Example 37] | < 6.10 | > 50000
N#Cc1cc(-c2nnc(NC3N=C(c4ccccc4)c4ccccc4NC3=O)o2)ccn1 (stereo not drawn) [Example 38] | < 6.10 | > 50000
O=C1Nc2ccccc2C(c2ccccc2)=NC1Nc1nnc(-c2ccc(=O)[nH]c2)o1 (stereo not drawn) [Example 39] | < 6.10 | > 50000
O=C1Nc2ccccc2C(c2ccccc2)=NC1Nc1nnc(-c2ccc3nc[nH]c3c2)o1 (stereo not drawn) [Example 41] | < 6.10 | > 50000
O=C1Nc2ccccc2C(c2ccccc2)=NC1Nc1nnc(-c2cc3cccnc3s2)o1 (stereo not drawn) [Example 43] | < 6.10 | > 50000
CN1CCc2nc(-c3nnc(NC4N=C(c5ccccc5)c5ccccc5NC4=O)o3)sc2C1 (stereo not drawn) [Example 44] | < 6.10 | > 50000
O=C1Nc2ccccc2C(c2ccccc2)=NC1Nc1nnc(C2CCNCC2)o1 (stereo not drawn) [Example 45] | < 6.10 | > 50000
CN1CCC(c2nnc(NC3N=C(c4ccccc4)c4ccccc4NC3=O)o2)CC1 (stereo not drawn) [Example 46] | < 6.10 | > 50000
CC(=O)N1CCC(c2nnc(NC3N=C(c4ccccc4)c4ccccc4NC3=O)o2)CC1 (stereo not drawn) [Example 47] | < 6.10 | > 50000
O=C1Nc2ccccc2C(c2ccccc2)=NC1Nc1nnc([C@@H]2COCCN2)o1 (stereo partly drawn) [Example 48] | < 6.10 | > 50000
O=C1Nc2ccccc2C(c2ccccc2)=NC1Nc1nnc([C@H]2COCCN2)o1 (stereo partly drawn) [Example 49] | < 6.10 | > 50000
O=C1Nc2ccccc2C(c2ccccc2)=NC1Nc1nnc(-c2ccc(F)cc2F)o1 (stereo not drawn) [Example 50] | < 6.10 | > 50000
COc1ccc(-c2nnc(NC3N=C(c4ccccc4)c4ccccc4NC3=O)o2)nc1 (stereo not drawn) [Example 51] | 6.10 to 6.40 | > 50000
COc1cccc(-c2nnc(NC3N=C(c4ccccc4)c4ccccc4NC3=O)o2)n1 (stereo not drawn) [Example 52] | > 6.40 | > 50000

Compound | pEC50 [1] | CC50 (HEp-2 cells) [nM]
O=C1Nc2ccccc2C(c2ccccc2)=NC1Nc1nnc(-c2ccc(F)nc2)o1 (stereo not drawn) [Example 53] | 6.10 to 6.40 | > 50000
COc1ccc(-c2nnc(NC3N=C(c4ccccc4)c4ccccc4NC3=O)o2)cn1 (stereo not drawn) [Example 54] | > 6.40 | > 50000
O=C1Nc2ccccc2C(c2ccccc2)=NC1Nc1nnc(-c2ccnc(F)c2)o1 (stereo not drawn) [Example 55] | > 6.40 | > 50000
COc1ccnc(-c2nnc(NC3N=C(c4ccccc4)c4ccccc4NC3=O)o2)c1 (stereo not drawn) [Example 57] | < 6.10 | > 50000
O=C1Nc2ccccc2C(c2ccccc2)=NC1Nc1nnc(-c2cnccn2)o1 (stereo not drawn) [Example 58] | < 6.10 | > 50000
O=C1Nc2ccccc2C(c2ccccc2)=NC1Nc1nnc(-c2ncccn2)o1 (stereo not drawn) [Example 59] | < 6.10 | > 50000
O=C1Nc2ccccc2C(c2ccccc2)=NC1Nc1nnc(-c2cncnc2)o1 (stereo not drawn) [Example 60] | < 6.10 | > 50000
O=C1Nc2ccccc2C(c2ccccc2)=NC1Nc1nnc(-c2ccncc2)o1 (stereo not drawn) [Example 61] | 6.10 to 6.40 | > 50000
O=C1Nc2ccccc2C(c2ccccc2)=NC1Nc1nnc(-c2cccnn2)o1 (stereo not drawn) [Example 62] | < 6.10 | > 50000
O=C1Nc2ccccc2C(c2ccccc2)=NC1Nc1nnc(-c2ccncn2)o1 (stereo not drawn) [Example 63] | < 6.10 | > 50000
COCc1cccc(-c2nnc(NC3N=C(c4ccccc4)c4ccccc4NC3=O)o2)n1 (stereo not drawn) [Example 64] | < 6.10 | > 50000
Cn1nccc1-c1nnc(NC2N=C(c3ccccc3)c3ccccc3NC2=O)o1 (stereo not drawn) [Example 65] | < 6.10 | > 50000
Cn1cc(-c2nnc(NC3N=C(c4ccccc4)c4ccccc4NC3=O)o2)cn1 (stereo not drawn) [Example 66] | 6.10 to 6.40 | > 50000
Cn1ccnc1-c1nnc(NC2N=C(c3ccccc3)c3ccccc3NC2=O)o1 (stereo not drawn) [Example 67] | < 6.10 | > 50000
Cn1cnc(-c2nnc(NC3N=C(c4ccccc4)c4ccccc4NC3=O)o2)c1 (stereo not drawn) [Example 68] | < 6.10 | > 50000
O=C1Nc2ccccc2C(c2ccccc2)=NC1Nc1nnc(-c2nccs2)o1 (stereo not drawn) [Example 69] | < 6.10 | > 50000
O=C1Nc2ccccc2C(c2ccccc2)=NC1Nc1nnc(-c2ncco2)o1 (stereo not drawn) [Example 70] | < 6.10 | > 50000
Cc1ccc(-c2nnc(NC3N=C(c4ccccc4)c4ccccc4NC3=O)o2)o1 (stereo not drawn) [Example 71] | < 6.10 | > 50000
COCc1ccc(-c2nnc(NC3N=C(c4ccccc4)c4ccccc4NC3=O)o2)o1 (stereo not drawn) [Example 72] | < 6.10 | > 50000
CN(C)Cc1ccc(-c2nnc(NC3N=C(c4ccccc4)c4ccccc4NC3=O)o2)o1 (stereo not drawn) [Example 73] | < 6.10 | > 50000
Cc1cc(-c2nnc(NC3N=C(c4ccccc4)c4ccccc4NC3=O)o2)on1 (stereo not drawn) [Example 74] | < 6.10 | > 50000
O=C1Nc2ccccc2C(c2ccccc2)=NC1Nc1nnc(-c2cnco2)o1 (stereo not drawn) [Example 75] | < 6.10 | > 50000
O=C1Nc2ccccc2C(c2ccccc2)=NC1Nc1nnc(-c2cncs2)o1 (stereo not drawn) [Example 76] | < 6.10 | > 50000
O=C1Nc2ccccc2C(c2ccccc2)=NC1Nc1nnc(-c2cscn2)o1 (stereo not drawn) [Example 77] | 6.10 to 6.40 | > 50000
O=C1Nc2ccccc2C(c2ccccc2)=NC1Nc1nnco1 (stereo not drawn) [Example 79] | < 6.10 | > 50000
